# Earlier results, collected in patent US11065213B2, “Amantadine compositions and preparations thereof” (Adamas Pharma, LLC, priority 2017, dated 2021).
# Where two headings read alike, the source gives them in different places.
# System: LID in PD patients
# Details: IR formulation
structure (smiles),measurement,setting,value
NC12CC3CC(CC(C3)C1)C2 [amantadine],reduction in LID,200 mg/day,approximately 25%
same,reduction of LID,300 mg/day,~40%
same,reduction of LID,300 to 400 mg/day,~60%
